Assay results as given in publication PMC3770947, “A cyclic GMP-dependent signalling pathway regulates bacterial phytopathogenesis” (The EMBO Journal, 2013).

How the values were obtained:
[1] = target: cNMP domain of XC_0249 (Xanthomonas campestris pv. campestris (Xcc) strain 8004); test: crystal structure; XC_0249 cNMP domain with cyclic GMP bound, resolution 2.2 Å
[2] = target: T1, CYC domain of XC_0250 (CYCHis6) (Xanthomonas campestris, UniProt Q8PDU5); test: guanylyl cyclase assay, reverse-phase HPLC and mass spectrometry; assay type: biochemical; conditions: 0.5 mM GTP, 10 mM MnCl2, pH 8.0, 25°C
T1 construct: gene XCC0240; single band of 21 kDa

[3] = target: T2, full-length XC_0249 (Xanthomonas campestris, UniProt Q8PDU6); test: diguanylate cyclase assay, HPLC and mass spectrometry; assay type: biochemical; conditions: 150 μM GTP, 10 mM MgCl2, pH 7.6, 60 min
T2 construct: gene XCC0239; full-length purified protein; cNMP domain plus GGDEF domain
T2 sequence (Q8PDU6 entry or part of it): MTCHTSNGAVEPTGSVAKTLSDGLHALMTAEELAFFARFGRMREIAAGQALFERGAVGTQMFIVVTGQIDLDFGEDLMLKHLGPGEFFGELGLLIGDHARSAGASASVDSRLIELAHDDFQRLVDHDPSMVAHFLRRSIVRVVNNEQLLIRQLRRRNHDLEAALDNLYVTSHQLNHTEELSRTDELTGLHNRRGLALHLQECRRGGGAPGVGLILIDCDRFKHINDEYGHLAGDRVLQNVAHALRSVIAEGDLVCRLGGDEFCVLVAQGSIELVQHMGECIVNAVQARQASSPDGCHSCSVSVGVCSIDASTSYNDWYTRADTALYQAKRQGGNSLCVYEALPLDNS

T1 sequence (Q8PDU5 entry or part of it): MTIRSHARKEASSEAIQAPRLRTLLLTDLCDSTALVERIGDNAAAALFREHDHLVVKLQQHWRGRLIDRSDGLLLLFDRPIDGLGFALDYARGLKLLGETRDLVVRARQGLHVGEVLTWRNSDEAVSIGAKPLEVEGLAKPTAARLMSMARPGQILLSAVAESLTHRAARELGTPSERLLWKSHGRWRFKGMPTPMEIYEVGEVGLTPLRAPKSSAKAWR

Molecule | guanylyl cyclase assay, reverse-phase HPLC and mass spectrometry [2] | other results
cNMP domain of XC_0249 (domain or fragment) | – | stoichiometry N [1]: 2
Nc1nc2c(ncn2[C@@H]2O[C@@H]3COP(=O)(O)O[C@H]3[C@H]2O)c(=O)[nH]1 [cyclic GMP] | This protein had guanylate cyclase activity, converting GTP to cyclic GMP | –
Nc1nc2c(ncn2[C@@H]2O[C@@H]3COP(=O)(O)O[C@H]4[C@@H](O)[C@H](n5cnc6c(=O)[nH]c(N)nc65)O[C@@H]4COP(=O)(O)O[C@H]3[C@H]2O)c(=O)[nH]1 [cyclic di-GMP] | – | diguanylate cyclase assay, HPLC and mass spectrometry [3]: The identity of cyclic di-GMP as a product was confirmed by mass spectrometry
Nc1nc2c(ncn2[C@@H]2O[C@H](COP(=O)(O)OP(=O)(O)OP(=O)(O)O)[C@@H](O)[C@H]2O)c(=O)[nH]1 [GTP] | This protein had guanylate cyclase activity, converting GTP to cyclic GMP | –
